System: T1, CESP (coconut endosperm protease)
T1 construct: native, purified from fully matured coconut kernel (endosperm)
Experiment: p-nitroaniline release at […] nm
Format: biochemical, Cocos nucifera
Settings: 100 mM Tris HCl pH 8.5, 37 °C

Km: 200 µM
SMILES: N=C(N)NCCCC(NC(=O)c1ccccc1)C(=O)Nc1ccc([N+](=O)[O-])cc1 (racemic) [BAPNA]
